ChEMBL document CHEMBL1201862, “PubChem BioAssay data set” (2004)
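Test compounds were applied to cells in 96-well plates for 48 hours at 5 doses. The concentration for 50% growth inhibition is given as GI50.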 The source made the active and inactive calls. No stated cut-off is given here; in the data, active = GI50 up to about 1.1 µM and inactive = higher.

Key:
Test in all cases: growth of human tumour cells (NCI), 48 h
[1] = test system: A549
[2] = test system: CCRF-CEM
[3] = test system: COLO 205
[4] = test system: EKVX
[5] = test system: HCT-116
[6] = test system: HCT-15
[7] = test system: HOP-62
[8] = test system: KM12
[9] = test system: LOX IMVI
[10] = test system: MOLT-4
[11] = test system: NCI-H226
[12] = test system: NCI-H460
[13] = test system: NCI-H522
[14] = test system: OVCAR-5
[15] = test system: SK-MEL-28
[16] = test system: SK-MEL-5
[17] = test system: SK-OV-3
[18] = test system: SN12C
[19] = test system: U-251
[20] = test system: UO-31

## Cc1nc(O)nc(O)c1/C=C/C(=O)O
[1]
  GI50: > 1000 µM (inactive)
[2]
  GI50: > 1000 µM (inactive)
[3]
  GI50: > 1000 µM (inactive)
[4]
  GI50: > 1000 µM (inactive)
[5]
  GI50: > 1000 µM (inactive)
[6]
  GI50: > 1000 µM
[7]
  GI50: > 1000 µM (inactive)
[8]
  GI50: > 1000 µM (inactive)
[9]
  GI50: > 1000 µM (inactive)
[10]
  GI50: > 1000 µM (inactive)
[11]
  GI50: > 1000 µM (inactive)
[12]
  GI50: > 1000 µM (inactive)
[13]
  GI50: > 1000 µM (inactive)
[14]
  GI50: > 891 µM (inactive)
[15]
  GI50: > 1000 µM (inactive)
[16]
  GI50: > 1000 µM (inactive)
[17]
  GI50: > 1000 µM (inactive)
[18]
  GI50: > 1000 µM (inactive)
[19]
  GI50: > 1000 µM (inactive)
[20]
  GI50: > 1000 µM (inactive)
